The record followed here is PMC5218480 (PLoS ONE, 2017).

The test system of this test is MV-4-11 cells. Description: Gene expression microarray analysis (Affymetrix PrimeView) and GSEA. Type of test: cell-based, human. Also on record: RFU PODN (11730768_x_at) / Fold change /veh PODN (11730768_x_at) / RFU LINC00158 (11744669_a_at) / Fold change /veh LINC00158 (11744669_a_at) / RFU DUSP10 (11751237_a_at) / Fold change /veh DUSP10 (11751237_a_at) / RFU ID3 (11757404_x_at) / Fold change /veh ID3 (11757404_x_at) / RFU PLEKHG5 (11737974_s_at) / Fold change /veh PLEKHG5 (11737974_s_at) / RFU LRRC4B (11730491_at) / Fold change /veh LRRC4B (11730491_at) / RFU GIMAP4 (11747438_a_at) / Fold change /veh GIMAP4 (11747438_a_at) / RFU KRT8 (11758183_x_at) / Fold change /veh KRT8 (11758183_x_at) / RFU CNN1 (11734310_a_at) / Fold change /veh CNN1 (11734310_a_at) / RFU VPS37D (11726825_at) / Fold change /veh VPS37D (11726825_at) / RFU C10orf10 (11716522_x_at) / Fold change /veh C10orf10 (11716522_x_at) / RFU KIR2DL2 /// KIR2DL4 /// KIR2DL5A /// KIR2DL5B /// KIR2DS1 /// KIR2DS2 /// KIR2DS3 /// KIR2DS4 /// KIR3DL3 /// KIR3DL3 /// KIR3DS1 (11738374_at) / Fold change /veh KIR2DL2 /// KIR2DL4 /// KIR2DL5A /// KIR2DL5B /// KIR2DS1 /// KIR2DS2 /// KIR2DS3 /// KIR2DS4 /// KIR3DL3 /// KIR3DL3 /// KIR3DS1 (11738374_at) / RFU C1QL1 (11718748_at) / Fold change /veh C1QL1 (11718748_at) / RFU TMPRSS4 (11747572_a_at) / Fold change /veh TMPRSS4 (11747572_a_at) / RFU HAMP (11756126_x_at) / Fold change /veh HAMP (11756126_x_at) / RFU RNFT2 (11725882_a_at) / Fold change /veh RNFT2 (11725882_a_at) / RFU NR4A2 (11747474_a_at) / Fold change /veh NR4A2 (11747474_a_at) / RFU ABCC12 (11746883_a_at) / Fold change /veh ABCC12 (11746883_a_at) / RFU TMEM136 (11760407_x_at) / Fold change /veh TMEM136 (11760407_x_at) / RFU CLDN22 /// WWC2 (11732394_at) / Fold change /veh CLDN22 /// WWC2 (11732394_at) / RFU HLA-DPB1 (11760878_x_at) / Fold change /veh HLA-DPB1 (11760878_x_at) / RFU SPINT1 (11716480_a_at) / Fold change /veh SPINT1 (11716480_a_at) / RFU GAP43 (11754022_s_at) / Fold change /veh GAP43 (11754022_s_at) / RFU A4GNT (11735810_at) / Fold change /veh A4GNT (11735810_at) / RFU PRB3 (11715151_x_at) / Fold change /veh PRB3 (11715151_x_at) / RFU TUBB4B (11761932_at) / Fold change /veh TUBB4B (11761932_at) / RFU CAPN14 (11732068_a_at) / Fold change /veh CAPN14 (11732068_a_at) / RFU TMCC2 (11721928_a_at) / Fold change /veh TMCC2 (11721928_a_at) / RFU IRGQ (11745062_a_at) / Fold change /veh IRGQ (11745062_a_at) / RFU FAM174B (11720279_a_at) / Fold change /veh FAM174B (11720279_a_at) / RFU TMPRSS4 (11748680_a_at) / Fold change /veh TMPRSS4 (11748680_a_at) / RFU FAM212B (11763350_a_at) / Fold change /veh FAM212B (11763350_a_at) / RFU PLEKHG5 (11743358_a_at) / Fold change /veh PLEKHG5 (11743358_a_at) / RFU ZSCAN30 (11745921_a_at) / Fold change /veh ZSCAN30 (11745921_a_at) / RFU CMKLR1 (11741424_a_at) / Fold change /veh CMKLR1 (11741424_a_at) / RFU LOC101060620 /// MAPK8IP1 (11723275_at) / Fold change /veh LOC101060620 /// MAPK8IP1 (11723275_at) / RFU SPTSSB (11747773_x_at) / Fold change /veh SPTSSB (11747773_x_at) / RFU PRSS12 (11739890_at) / Fold change /veh PRSS12 (11739890_at) / RFU BIN1 (11741810_x_at) / Fold change /veh BIN1 (11741810_x_at) / RFU WNT11 (11732464_a_at) / Fold change /veh WNT11 (11732464_a_at) / RFU C10orf10 (11716521_a_at) / Fold change /veh C10orf10 (11716521_a_at) / RFU C5orf56 (11738089_at) / Fold change /veh C5orf56 (11738089_at) / RFU CYB561 (11721691_x_at) / Fold change /veh CYB561 (11721691_x_at) / RFU ANKRD19P (11752326_a_at) / Fold change /veh ANKRD19P (11752326_a_at) / RFU OR2T12 /// OR2T33 /// OR2T8 (11738714_s_at) / Fold change /veh OR2T12 /// OR2T33 /// OR2T8 (11738714_s_at) / RFU VCAN (11748164_a_at) / Fold change /veh VCAN (11748164_a_at) / RFU JSRP1 (11732532_at) / Fold change /veh JSRP1 (11732532_at) / RFU KRTAP10-11 (11738290_x_at) / Fold change /veh KRTAP10-11 (11738290_x_at) / RFU MYO3A (11730013_a_at) / Fold change /veh MYO3A (11730013_a_at) / RFU EBF3 (11725865_a_at) / Fold change /veh EBF3 (11725865_a_at) / RFU CAMK2N1 (11719241_x_at) / Fold change /veh CAMK2N1 (11719241_x_at) / RFU C5orf56 (11738088_a_at) / Fold change /veh C5orf56 (11738088_a_at) / RFU OLFML3 (11715873_a_at) / Fold change /veh OLFML3 (11715873_a_at) / RFU LOC100653217 /// NTM (11731650_a_at) / Fold change /veh LOC100653217 /// NTM (11731650_a_at) / RFU MAPK11 (11762145_a_at) / Fold change /veh MAPK11 (11762145_a_at) / RFU FIZ1 (11724087_x_at) / Fold change /veh FIZ1 (11724087_x_at) / RFU OASL (11726364_x_at) / Fold change /veh OASL (11726364_x_at) / RFU SOX15 (11748057_x_at) / Fold change /veh SOX15 (11748057_x_at) / RFU CD79A (11719716_a_at) / Fold change /veh CD79A (11719716_a_at) / RFU HIST1H1D (11736915_at) / Fold change /veh HIST1H1D (11736915_at) / RFU CASKIN2 (11723855_a_at) / Fold change /veh CASKIN2 (11723855_a_at) / RFU LOC730098 (11760151_x_at) / Fold change /veh LOC730098 (11760151_x_at) / RFU OR4N2 (11742367_at) / Fold change /veh OR4N2 (11742367_at) / RFU PRRT2 (11749266_a_at) / Fold change /veh PRRT2 (11749266_a_at) / RFU SNX32 (11753110_a_at) / Fold change /veh SNX32 (11753110_a_at) / RFU CDHR5 (11726645_a_at) / Fold change /veh CDHR5 (11726645_a_at) / RFU RCAN1 (11760418_a_at) / Fold change /veh RCAN1 (11760418_a_at) / RFU FAM167A (11723789_a_at) / Fold change /veh FAM167A (11723789_a_at) / RFU FAM26E (11764081_at) / Fold change /veh FAM26E (11764081_at) / RFU ISYNA1 (11749810_s_at) / Fold change /veh ISYNA1 (11749810_s_at) / RFU ACY1 (11761880_at) / Fold change /veh ACY1 (11761880_at) / RFU 11764098_at / Fold change /veh 11764098_at / RFU SAMD14 (11745864_x_at) / Fold change /veh SAMD14 (11745864_x_at) / RFU NPB (11741838_a_at) / Fold change /veh NPB (11741838_a_at) / RFU TMPRSS6 (11731388_a_at) / Fold change /veh TMPRSS6 (11731388_a_at) / RFU KRTAP10-2 (11738614_at) / Fold change /veh KRTAP10-2 (11738614_at) / RFU ARHGAP8 /// PRR5-ARHGAP8 (11727945_x_at) / Fold change /veh ARHGAP8 /// PRR5-ARHGAP8 (11727945_x_at) / RFU KRTAP5-7 /// NADSYN1 (11734609_at) / Fold change /veh KRTAP5-7 /// NADSYN1 (11734609_at) / RFU RASL12 (11751679_a_at) / Fold change /veh RASL12 (11751679_a_at) / RFU CDKN2B (11736163_a_at) / Fold change /veh CDKN2B (11736163_a_at) / RFU PRF1 (11729649_at) / Fold change /veh PRF1 (11729649_at) / RFU, ZNF638 /// ZNF638-IT1 / Fold change vs veh, ZNF638 /// ZNF638-IT1 / RFU, PANK3 / Fold change vs veh, PANK3 / RFU, SH3YL1 / Fold change vs veh, SH3YL1 / RFU, ZEB2 / Fold change vs veh, ZEB2 / RFU, NRIP1 / Fold change vs veh, NRIP1 / RFU, PTTG1IP / Fold change vs veh, PTTG1IP / RFU, CAPN2 / Fold change vs veh, CAPN2 / RFU, MED14 / Fold change vs veh, MED14 / RFU, SNORA58 / Fold change vs veh, SNORA58 / RFU, C1orf63 / Fold change vs veh, C1orf63 / RFU, LRRFIP1 / Fold change vs veh, LRRFIP1 / RFU, NDUFAF7 / Fold change vs veh, NDUFAF7 / RFU, SLC12A2 / Fold change vs veh, SLC12A2 / RFU, IBTK / Fold change vs veh, IBTK / RFU, ESF1 / Fold change vs veh, ESF1 / Fold change vs veh, TMEM50B / RFU, TAOK1 / Fold change vs veh, TAOK1 / RFU, ACBD3 / Fold change vs veh, ACBD3 / RFU, TMA16 / Fold change vs veh, TMA16 / RFU, RWDD3 / Fold change vs veh, RWDD3 / RFU, BCAT1 / Fold change vs veh, BCAT1 / RFU, EDEM3 / Fold change vs veh, EDEM3 / RFU, TMEM33 / Fold change vs veh, TMEM33 / RFU, WDR75 / Fold change vs veh, WDR75 / RFU, AHCTF1 / Fold change vs veh, AHCTF1 / RFU, TFRC / Fold change vs veh, TFRC / RFU, ZDHHC17 / Fold change vs veh, ZDHHC17 / RFU, NOM1 / Fold change vs veh, NOM1 / RFU, ARL8B / Fold change vs veh, ARL8B / RFU, ZBTB11 / Fold change vs veh, ZBTB11 / RFU, TAMM41 / Fold change vs veh, TAMM41 / RFU, KIAA1704 /// LOC100996395 / Fold change vs veh, KIAA1704 /// LOC100996395 / RFU, ING1 / Fold change vs veh, ING1 / RFU, TRMT61B / Fold change vs veh, TRMT61B / RFU, FUBP3 / Fold change vs veh, FUBP3 / RFU, TP53 / Fold change vs veh, TP53 / RFU, TNKS2 / Fold change vs veh, TNKS2 / RFU, ZFP14 / Fold change vs veh, ZFP14 / RFU, ACTR2 / Fold change vs veh, ACTR2 / RFU, PPP3R1 / Fold change vs veh, PPP3R1 / RFU, PIK3R1 / Fold change vs veh, PIK3R1 / RFU, HNRNPA1 / Fold change vs veh, HNRNPA1 / RFU, RNF170 / Fold change vs veh, RNF170 / RFU, ZNF28 / Fold change vs veh, ZNF28 / RFU, RNGTT / Fold change vs veh, RNGTT / RFU, OGT / Fold change vs veh, OGT / RFU, BRD1 / Fold change vs veh, BRD1 / RFU, MARS / Fold change vs veh, MARS / RFU, ZNF655 / Fold change vs veh, ZNF655 / RFU, FAHD1 / Fold change vs veh, FAHD1 / RFU, BDP1 / Fold change vs veh, BDP1 / RFU, LRRCC1 / Fold change vs veh, LRRCC1 / RFU, ARID1A / Fold change vs veh, ARID1A / RFU, ZNF146 / Fold change vs veh, ZNF146 / RFU, ZNF330 / Fold change vs veh, ZNF330 / RFU, GPN3 / Fold change vs veh, GPN3 / RFU, C9orf123 / Fold change vs veh, C9orf123 / RFU, N4BP2L2 / Fold change vs veh, N4BP2L2 / RFU, ARFIP1 / Fold change vs veh, ARFIP1 / RFU, FAM179B / Fold change vs veh, FAM179B / RFU, BCL10 / Fold change vs veh, BCL10 / RFU, UHRF1BP1L / Fold change vs veh, UHRF1BP1L / RFU, BET1 / Fold change vs veh, BET1 / RFU, CNOT2 / Fold change vs veh, CNOT2 / RFU, ZNF268 / Fold change vs veh, ZNF268 / Fold change vs veh, ZNF507 / RFU, DGCR2 / Fold change vs veh, DGCR2 / RFU, WDSUB1 / Fold change vs veh, WDSUB1 / Fold change vs veh, HSP90B1 /// MIR3652 / RFU, ADSS / Fold change vs veh, ADSS / RFU, GK / Fold change vs veh, GK / RFU, ZNF148 / Fold change vs veh, ZNF148 / RFU, TAF9 / Fold change vs veh, TAF9 / RFU, SLC1A5 / Fold change vs veh, SLC1A5 / RFU, SLMO2 / Fold change vs veh, SLMO2 / RFU, ABCC4 / Fold change vs veh, ABCC4 / RFU, LOC101060439 /// RAP1B / Fold change vs veh, LOC101060439 /// RAP1B / RFU, RFX7 / Fold change vs veh, RFX7 / RFU, GTPBP10 / Fold change vs veh, GTPBP10 / RFU, CNEP1R1 / Fold change vs veh, CNEP1R1 / RFU, BIVM-ERCC5 /// ERCC5 / Fold change vs veh, BIVM-ERCC5 /// ERCC5 / RFU, ILF3 / Fold change vs veh, ILF3 / RFU 11762660_at / Fold change /veh 11762660_at / RFU VCAN (11757783_s_at) / Fold change /veh VCAN (11757783_s_at) / RFU DDX43 (11728927_at) / Fold change /veh DDX43 (11728927_at) / RFU KRT8 (11758188_x_at) / Fold change /veh KRT8 (11758188_x_at) / RFU NKD1 (11759106_at) / Fold change /veh NKD1 (11759106_at) / RFU SRD5A1 (11742802_a_at) / Fold change /veh SRD5A1 (11742802_a_at) / RFU TPSAB1 /// TPSB2 (11721975_s_at) / Fold change /veh TPSAB1 /// TPSB2 (11721975_s_at) / RFU GSTM3 (11746129_a_at) / Fold change /veh GSTM3 (11746129_a_at) / RFU IL23R (11737362_x_at) / Fold change /veh IL23R (11737362_x_at) / RFU TMEM51 (11727254_a_at) / Fold change /veh TMEM51 (11727254_a_at) / RFU PIWIL2 (11732686_x_at) / Fold change /veh PIWIL2 (11732686_x_at) / RFU ORM1 (11744905_x_at) / Fold change /veh ORM1 (11744905_x_at) / RFU CCDC152 (11743942_at) / Fold change /veh CCDC152 (11743942_at) / RFU ECM1 (11717891_a_at) / Fold change /veh ECM1 (11717891_a_at) / RFU IL23R (11748794_a_at) / Fold change /veh IL23R (11748794_a_at) / RFU TNFAIP8L3 (11732012_x_at) / Fold change /veh TNFAIP8L3 (11732012_x_at) / RFU MBOAT4 (11741988_at) / Fold change /veh MBOAT4 (11741988_at) / RFU 11764193_at / Fold change /veh 11764193_at / RFU TMEM53 (11763286_at) / Fold change /veh TMEM53 (11763286_at) / RFU MAGEB2 (11727129_at) / Fold change /veh MAGEB2 (11727129_at) / RFU TMEM200A (11744735_a_at) / Fold change /veh TMEM200A (11744735_a_at) / RFU CCDC152 (11751479_a_at) / Fold change /veh CCDC152 (11751479_a_at) / RFU FAM211A (11726209_a_at) / Fold change /veh FAM211A (11726209_a_at) / RFU RGS16 (11746705_a_at) / Fold change /veh RGS16 (11746705_a_at) / RFU VCAN (11755009_s_at) / Fold change /veh VCAN (11755009_s_at) / RFU RHOB (11743442_s_at) / Fold change /veh RHOB (11743442_s_at) / RFU RGS16 (11720943_a_at) / Fold change /veh RGS16 (11720943_a_at) / RFU RGS16 (11720944_at) / Fold change /veh RGS16 (11720944_at) / RFU, VPS4B / Fold change vs veh, VPS4B / RFU, CREB1 / Fold change vs veh, CREB1 / RFU, DNAJC13 / Fold change vs veh, DNAJC13 / RFU, GNAQ / Fold change vs veh, GNAQ / RFU, CDK5R1 / Fold change vs veh, CDK5R1 / RFU, ZRANB3 / Fold change vs veh, ZRANB3 / RFU, CUL4A / Fold change vs veh, CUL4A / RFU, CCNY / Fold change vs veh, CCNY / RFU, UFL1 / Fold change vs veh, UFL1 / RFU, COG3 / Fold change vs veh, COG3 / RFU, DIAPH2 / Fold change vs veh, DIAPH2 / RFU, SKA2 / Fold change vs veh, SKA2 / RFU, AFF3 / Fold change vs veh, AFF3 / RFU, LMF1 / Fold change vs veh, LMF1 / RFU, IPO11 / Fold change vs veh, IPO11 / RFU, DFFB / Fold change vs veh, DFFB / RFU, FOXP1 / Fold change vs veh, FOXP1 / RFU, CARD8 / Fold change vs veh, CARD8 / RFU, STRN3 / Fold change vs veh, STRN3 / RFU, ADK / Fold change vs veh, ADK / RFU, RASSF2 / Fold change vs veh, RASSF2 / RFU, WIPF1 / Fold change vs veh, WIPF1 / RFU, LARP1B / Fold change vs veh, LARP1B / RFU, RASA1 / Fold change vs veh, RASA1 / RFU, RB1 / Fold change vs veh, RB1 / RFU, PPFIA1 / Fold change vs veh, PPFIA1 / RFU, MAT2A / Fold change vs veh, MAT2A / RFU, CCT5 / Fold change vs veh, CCT5 / RFU, WDR92 / Fold change vs veh, WDR92 / RFU, CUX1 / Fold change vs veh, CUX1 / RFU, TTC7A / Fold change vs veh, TTC7A / RFU, TMEM135 / Fold change vs veh, TMEM135 / RFU, DEPTOR / Fold change vs veh, DEPTOR / RFU, CPM / Fold change vs veh, CPM / RFU, DNAJB6 / Fold change vs veh, DNAJB6 / RFU, CACNA2D3 / Fold change vs veh, CACNA2D3 / RFU, DTX4 / Fold change vs veh, DTX4 / RFU, TFCP2 / Fold change vs veh, TFCP2 / RFU, GMCL1 /// GMCL1P1 / Fold change vs veh, GMCL1 /// GMCL1P1 / RFU, AEBP2 / Fold change vs veh, AEBP2 / RFU, SNHG1 /// SNORD22 /// SNORD25 /// SNORD26 /// SNORD27 /// SNORD28 /// SNORD29 /// SNORD31 / Fold change vs veh, SNHG1 /// SNORD22 /// SNORD25 /// SNORD26 /// SNORD27 /// SNORD28 /// SNORD29 /// SNORD31 / Fold change (Aza/veh), C12orf56 (ProbeSet 11735607_a_at) / Fold change (ACY-1035/veh), C12orf56 (ProbeSet 11735607_a_at) / Fold change (Aza/veh), FGFR1OP (ProbeSet 11751329_s_at) / Fold change (ACY-1035/veh), FGFR1OP (ProbeSet 11751329_s_at) / Fold change (Aza/veh), VPS36 (ProbeSet 11739960_a_at) / Fold change (ACY-1035/veh), VPS36 (ProbeSet 11739960_a_at) / RFU SYPL1 (11715823_x_at) / Fold change /veh SYPL1 (11715823_x_at) / RFU IGFBP7 (11715501_s_at) / Fold change /veh IGFBP7 (11715501_s_at) / RFU REEP3 (11722064_at) / Fold change /veh REEP3 (11722064_at) / RFU IGLL1 (11728026_x_at) / Fold change /veh IGLL1 (11728026_x_at): dose or concentration left out as unconfirmed. Conditions: MV-4-11 cells, 48 hours.

For the molecule `Nc1ccc(-c2cccs2)cc1NC(=O)c1ccc2c(c1)cc(C1CC1)n2CCN1CCOCC1` [ACY-1035], the “Fold change /veh PRF1 (11729649_at)” value is given as 1.05.
